Source: ChEMBL document CHEMBL3045481, “Insecticide-induced resurgence of the whitebacked planthopper Sogatella furcifera (Horvath) (Hemiptera: Delphacidae) on rice varieties with different levels of resistance” (Crop Prot, 2011)

How the values were obtained:
Sogatella furcifera [1] = assay: Insecticidal activity against Sogatella furcifera on insect-resistanct rice plant PR116 assessed as nymphal survival at 0.030% concentration (reference value: 70.28%); type: functional
Oryza sativa [2] = assay: Effect on total phenols level in Sogatella furcifera-resistanct Oryza sativa (rice) plant PR116 leaf blade measured per gram of dry weight at 0.030% concentration (reference value: 8.08 mg/g dry wt); type: ADME, organism-based; details: in vivo
Oryza sativa [3] = assay: Effect on total amino acids level in Sogatella furcifera-resistanct Oryza sativa (rice) plant PR116 leaf sheath measured per gram of dry weight at 0.030% concentration (reference value: 2.58 mg/g […]); type: ADME, organism-based; details: in vivo
Sogatella furcifera [4] = assay: Insecticidal activity against Sogatella furcifera on insect-sensitive rice plant ARC6248 assessed as nymphal duration at 0.030% concentration (reference value: 14.48 days); type: functional
Oryza sativa [5] = assay: Effect on reducing sugar level in Sogatella furcifera-sensitive Oryza sativa (rice) plant ARC6248 leaf blade measured per gram of dry weight at 0.030% concentration (reference value: 8.37 mg/g dry wt); type: ADME, organism-based; details: in vivo
Oryza sativa [6] = assay: Effect on total protein level in Sogatella furcifera-sensitive Oryza sativa (rice) plant ARC6248 leaf blade measured per gram of dry weight at 0.030% concentration (reference value: 17.67 mg/g […]); type: ADME, organism-based; details: in vivo
Oryza sativa [7] = assay: Effect on reducing sugar level in Sogatella furcifera-resistanct Oryza sativa (rice) plant PR116 leaf blade measured per gram of dry weight at 0.030% concentration (reference value: 9.35 mg/g dry wt); type: ADME, organism-based; details: in vivo
Sogatella furcifera [8] = assay: Insecticidal activity against Sogatella furcifera on insect-sensitive rice plant ARC6248 assessed as growth index at 0.030% concentration (reference value: 2.38%); type: functional
Sogatella furcifera [9] = assay: Insecticidal activity against Sogatella furcifera on insect-resistanct rice plant PR116 assessed as nymphal duration at 0.030% concentration (reference value: 11.75 days); type: functional
Oryza sativa [10] = assay: Effect on total phenols level in Sogatella furcifera-sensitive Oryza sativa (rice) plant ARC6248 leaf sheath measured per gram of dry weight at 0.030% concentration (reference value: 12.75 mg/g dry wt); type: ADME, organism-based; details: in vivo
Oryza sativa [11] = assay: Effect on total amino acids level in Sogatella furcifera-sensitive Oryza sativa (rice) plant ARC6248 leaf sheath measured per gram of dry weight at 0.030% concentration (reference value: 2.11 mg/g fresh wt); type: ADME, organism-based; details: in vivo
Oryza sativa [12] = assay: Effect on total sugar level in Sogatella furcifera-sensitive Oryza sativa (rice) plant ARC6248 leaf blade measured per gram of dry weight at 0.030% concentration (reference value: 34.05 mg/g dry wt); type: ADME, organism-based; details: in vivo
Oryza sativa [13] = assay: Effect on total phenols level in Sogatella furcifera-resistanct Oryza sativa (rice) plant PR116 leaf sheath measured per gram of dry weight at 0.030% concentration (reference value: 5.75 mg/g dry wt); type: ADME, organism-based; details: in vivo
Oryza sativa [14] = assay: Effect on total sugar level in Sogatella furcifera-resistanct Oryza sativa (rice) plant PR116 leaf sheath measured per gram of dry weight at 0.030% concentration (reference value: 30.27 mg/g dry wt); type: ADME, organism-based; details: in vivo
Oryza sativa [15] = assay: Effect on total sugar level in Sogatella furcifera-resistanct Oryza sativa (rice) plant PR116 leaf blade measured per gram of dry weight at 0.030% concentration (reference value: 36.16 mg/g dry wt); type: ADME, organism-based; details: in vivo
Sogatella furcifera [16] = assay: Insecticidal activity against Sogatella furcifera on insect-sensitive rice plant ARC6248 assessed as resurgence ratio at 0.030% concentration; type: functional
Oryza sativa [17] = assay: Effect on total phenols level in Sogatella furcifera-sensitive Oryza sativa (rice) plant ARC6248 leaf blade measured per gram of dry weight at 0.030% concentration (reference value: 17.08 mg/g dry wt); type: ADME, organism-based; details: in vivo
Oryza sativa [18] = assay: Effect on reducing sugar level in Sogatella furcifera-sensitive Oryza sativa (rice) plant ARC6248 leaf sheath measured per gram of dry weight at 0.030% concentration (reference value: 6.41 mg/g dry wt); type: ADME, organism-based; details: in vivo
Oryza sativa [19] = assay: Effect on total amino acids level in Sogatella furcifera-resistanct Oryza sativa (rice) plant PR116 leaf blade measured per gram of dry weight at 0.030% concentration (reference value: 3.91 mg/g […]); type: ADME, organism-based; details: in vivo
Oryza sativa [20] = assay: Effect on total protein level in Sogatella furcifera-resistanct Oryza sativa (rice) plant PR116 leaf blade measured per gram of dry weight at 0.030% concentration (reference value: 21.67 mg/g fresh wt); type: ADME, organism-based; details: in vivo
Sogatella furcifera [21] = assay: Insecticidal activity against Sogatella furcifera on insect-sensitive rice plant ARC6248 assessed as nymphal survival at 0.030% concentration (reference value: 34.17%); type: functional
Oryza sativa [22] = assay: Effect on reducing sugar level in Sogatella furcifera-resistanct Oryza sativa (rice) plant PR116 leaf sheath measured per gram of dry weight at 0.030% concentration (reference value: 7.50 mg/g dry wt); type: ADME, organism-based; details: in vivo
Oryza sativa [23] = assay: Effect on total sugar level in Sogatella furcifera-sensitive Oryza sativa (rice) plant ARC6248 leaf sheath measured per gram of dry weight at 0.030% concentration (reference value: 25.98 mg/g dry wt); type: ADME, organism-based; details: in vivo
Oryza sativa [24] = assay: Effect on total protein level in Sogatella furcifera-resistanct Oryza sativa (rice) plant PR116 leaf sheath measured per gram of dry weight at 0.030% concentration (reference value: 7.06 mg/g fresh wt); type: ADME, organism-based; details: in vivo
Oryza sativa [25] = assay: Effect on total protein level in Sogatella furcifera-sensitive Oryza sativa (rice) plant ARC6248 leaf sheath measured per gram of dry weight at 0.030% concentration (reference value: 6.11 mg/g […]); type: ADME, organism-based; details: in vivo
Sogatella furcifera [26] = assay: Insecticidal activity against Sogatella furcifera on insect-resistanct rice plant PR116 assessed as growth index at 0.030% concentration (reference value: 6.02%); type: functional
Oryza sativa [27] = assay: Effect on total amino acids level in Sogatella furcifera-sensitive Oryza sativa (rice) plant ARC6248 leaf blade measured per gram of dry weight at 0.030% concentration (reference value: 3.54 mg/g fresh wt); type: ADME, organism-based; details: in vivo
Sogatella furcifera [28] = assay: Insecticidal activity against Sogatella furcifera on insect-resistanct rice plant PR116 assessed as resurgence ratio at 0.030% concentration; type: functional

In the case of `COP(=S)(OC)Oc1ccc([N+](=O)[O-])cc1` [METHYL PARATHIONE], the Survival (Sogatella furcifera [1]) is reported as 77.78%, the Activity (Oryza sativa [2]) is reported as 7.5 mg and the Activity (Oryza sativa [3]) is reported as 3.64 mg. For the same compound, the Time (Sogatella furcifera [4]) was 14.35 days, the Activity (Oryza sativa [5]) was 10.54 mg and the Activity (Oryza sativa [6]) was 21.17 mg. The Activity (Oryza sativa [7]) was 14.89 mg, the “growth inhibition (GI)” value (Sogatella furcifera [8]) was 2.87% and the Time (Sogatella furcifera [9]) was 11.57 days. It also gave an Activity (Oryza sativa [10]) of 11.08 mg, an Activity (Oryza sativa [11]) of 2.86 mg and an Activity (Oryza sativa [12]) of 39.37 mg. It also gave an Activity (Oryza sativa [13]) of 5.58 mg, an Activity (Oryza sativa [14]) of 33.48 mg and an Activity (Oryza sativa [15]) of 38.3 mg. It also gave a Ratio (Sogatella furcifera [16]) of 1.26, an Activity (Oryza sativa [17]) of 16.08 mg and an Activity (Oryza sativa [18]) of 9.89 mg. The Activity (Oryza sativa [19]) was 4.53 mg, the Activity (Oryza sativa [20]) was 23.33 mg and the Survival (Sogatella furcifera [21]) was 40.83%. The Activity (Oryza sativa [22]) was 11.63 mg, the Activity (Oryza sativa [23]) was 33.21 mg and the Activity (Oryza sativa [24]) was 8.67 mg. The Activity (Oryza sativa [25]) was 8.33 mg, the “growth inhibition (GI)” value (Sogatella furcifera [26]) was 6.76% and the Activity (Oryza sativa [27]) was 4.04 mg. The Ratio (Sogatella furcifera [28]) was 1.69.
